Laboratory results published in PMC4979471 (Cell Death Discovery, 2015).
Entries after “also recorded” stand apart in the source; their conditions may differ. Read-outs that look alike come from different tables or passages of the source.

Columns and labels:
[1] = system: human monocytic U937 cells; assay: TNF+zVAD-induced necroptosis, CellTiter-Glo; format: cell-based; conditions: U-937, U937, overnight, read-out: IC50 blocking necroptosis
Protocol: (§1) Mouse fibrosarcoma L929 cells (ATCC# CCL-1) and human monocytic U937 cells (ATCC# CRL-1593.2) were cultured in RPMI media supplemented with 10% heat-inactivated FBS, 100 U/ml penicillin and […] streptomycin. BMDM were prepared from C57BL/6 mice by differentiation with 10 ng/ml M-CSF (R&D Systems) for 7 days and cultured in DMEM medium supplemented with 10% heat-inactivated FBS, 100 U/ml penicillin, 100 μg/ml streptomycin and 0.25 μg/ml amphotericin. Primary human neutrophils were isolated from human blood following the standard method comprised of sequential sedimentation in dextran, density centrifugation in Ficoll–Hypaque and lysis of contaminating red blood cells.
(§2) […] To evaluate the effect of RIP1 inhibitors, cells were pretreated with compound (dose–response) for 30 min. Induced cell death was evaluated 19–21 h later by measuring cellular ATP levels using CellTiter-Glo Luminescent Cell Viability assay (Promega, Fitchburg, WI, USA). To induce necroptosis in neutrophils, freshly isolated human neutrophils were stimulated with TNF (10 ng/ml), QVD-Oph (50 μM) and SMAC mimetic (100 nM). Induced cell death was evaluated as above.

[2] = system: mouse fibrosarcoma L929 cells; assay: TNF+zVAD-induced necroptosis, CellTiter-Glo; format: cell-based; conditions: overnight, read-out: IC50 blocking necroptosis
Protocol: as §1, §2

[3] = Pharmacokinetic profile after i.p. administration; format: in vivo, C57BL/6 mice; conditions: i.p., mice
Protocol: Briefly, pharmacokinetic studies were conducted using n=3 animals per group for each compound. […] Blood samples were obtained at various time points following intraperitoneal injection and diluted 1 : 1 with water prior to storage at −80 °C.
Prior to bioanalysis, samples were thawed and each analyte was isolated using a method based on protein precipitation. The resulting supernatant was injected into an LC/MS/MS system optimized for detection of the compound of interest. Data were reported as quantitative drug concentrations as determined by standard calibration curve analysis. Using these optimized conditions, the typical lower limit of quantitation achieved was 1.00 ng/ml for both compounds.

BMDM [4] = assay: TNF+cycloheximide-stimulated apoptosis (cell viability, Caspase 3/7); format: cell-based, mouse; conditions: 100 nM
Protocol: Caspase 3/7 activity was measured at 6 h using the Caspase-Glo 3/7 assay (Promega).

[5] = system: primary mouse bone marrow-derived macrophages (BMDMs); assay: TNF+zVAD-induced necroptosis, CellTiter-Glo; format: cell-based; conditions: BMDM, read-out: IC50 blocking necroptosis
Protocol: as §1
(§3) Necroptotic cell death was induced in BMDM, L929 and U937 cells with TNF in the presence of caspase inhibitor zVAD-FMK or QVD-Oph (BMDM: 50 ng/ml TNF+50 μM zVAD; L929: 100 ng/ml TNF+50 μM QVD; U937: 100 ng/ml TNF+25 μM QVD). To evaluate the effect of RIP1 inhibitors, cells were pretreated with compound (dose–response) for 30 min. Induced cell death was evaluated 19–21 h later by measuring cellular ATP levels using CellTiter-Glo Luminescent Cell Viability assay (Promega, Fitchburg, WI, USA). To induce necroptosis in neutrophils, freshly isolated human neutrophils were stimulated with TNF (10 ng/ml), QVD-Oph (50 μM) and SMAC mimetic (100 nM). Induced cell death was evaluated as above.

human and murine cells = assay: RIP1-dependent cell death, summary statements; format: cell-based; conditions: read-out: IC50 inhibiting RIP1-dependent cell death
Protocol: as §3

recombinant human IDO = target: T1, recombinant human IDO (Homo sapiens, UniProt P14902); assay: IDO enzymatic assay; format: biochemical; conditions: in vitro enzymatic assay
T1 construct: purchased R&D Systems (Minneapolis, MN, USA)
Protocol: IDO activity was determined as described by Takahashi et al.[25] using recombinant human IDO purchased from R&D Systems (Minneapolis, MN, USA). The yellow pigment derived from kynurenine was measured at 490 nm using the Spectramax microplate reader (Molecular Devices).

C57BL/6 mice = assay: TNF+zVAD-induced shock model (temperature loss); format: in vivo, mouse; conditions: 15 min before TNF+zVAD
Protocol: Temperature was monitored over the course of 3 h by rectal probe.

339 kinases = system: 339 kinases
Protocol: (§4) The compound was tested at a single dose in duplicate at 10 μM. Reactions were carried out at 10 μM ATP. Data are reported as % enzyme activity (relative to DMSO controls). The full data set is shown in the Supplementary Table I.

BMDM [6] = assay: TNF-induced NFκB activation (IκB phosphorylation and degradation, Western blot); format: cell-based, mouse; conditions: 100 nM
Source text: Lysates prepared in 1× Cell Lysis Buffer (Cell Signaling, Danvers, MA, USA) containing protease and phosphatase inhibitors were separated on 4–12% SDS-PAGE and blotted onto nitrocellulose membrane (Invitrogen, Waltham, MA, USA). Blots were probed for IκB (9242, Cell Signaling), phospho-IκB (2859, Cell Signaling), and tubulin as a loading control.

MAPKAPK5/PRAK = target: T2, MAPKAPK5/PRAK (Homo sapiens, UniProt Q8IW41); assay: Kinase selectivity, P33-radiolabeled assay; format: biochemical; conditions: 10 μM ATP
T2 construct: purchased Reaction Biology Corp
T2 sequence (Q8IW41 1-473): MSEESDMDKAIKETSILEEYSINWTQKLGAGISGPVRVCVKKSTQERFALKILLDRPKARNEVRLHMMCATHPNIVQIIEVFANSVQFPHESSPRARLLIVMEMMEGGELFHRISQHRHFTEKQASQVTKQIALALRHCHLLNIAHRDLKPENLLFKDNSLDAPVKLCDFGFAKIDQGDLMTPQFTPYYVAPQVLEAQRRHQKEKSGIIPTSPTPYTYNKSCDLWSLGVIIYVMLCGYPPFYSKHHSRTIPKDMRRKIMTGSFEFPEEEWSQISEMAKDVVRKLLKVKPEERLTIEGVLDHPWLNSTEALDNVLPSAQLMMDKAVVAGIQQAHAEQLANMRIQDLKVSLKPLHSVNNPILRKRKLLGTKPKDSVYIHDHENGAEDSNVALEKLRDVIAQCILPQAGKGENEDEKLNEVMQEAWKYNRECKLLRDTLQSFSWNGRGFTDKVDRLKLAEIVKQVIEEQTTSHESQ
Protocol: as §4

[7] = system: primary human neutrophils; assay: TNF, zVAD and SMAC mimetic-induced necroptosis, CellTiter-Glo; format: cell-based; conditions: Neutrophil, read-out: IC50 blocking necroptosis
Protocol: as §1
as §3, with “To induce necroptosis in neutrophils, freshly isolated human neutrophils were stimulated with TNF (10 ng/ml), QVD-Oph (50 μM) and SMAC mimetic (100 nM).” left out

T1 sequence (P14902 whole entry): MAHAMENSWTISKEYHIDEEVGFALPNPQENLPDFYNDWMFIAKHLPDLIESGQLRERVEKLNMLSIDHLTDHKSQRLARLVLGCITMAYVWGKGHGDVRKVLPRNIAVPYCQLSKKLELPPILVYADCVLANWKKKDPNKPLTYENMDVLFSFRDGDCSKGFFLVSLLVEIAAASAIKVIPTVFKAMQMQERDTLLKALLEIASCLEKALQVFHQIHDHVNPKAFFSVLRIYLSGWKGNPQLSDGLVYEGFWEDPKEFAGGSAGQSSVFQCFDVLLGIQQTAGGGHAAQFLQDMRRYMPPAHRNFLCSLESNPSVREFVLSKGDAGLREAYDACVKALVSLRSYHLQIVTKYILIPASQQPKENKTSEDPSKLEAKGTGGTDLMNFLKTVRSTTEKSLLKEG

## CC(C)(C)C(=O)N1N=CC[C@H]1c1ccccc1 [GSK′963]
[1]
  IC50: 4 nM
[2]
  IC50: 1 nM
[3]
  apparent half-life: greater than that for Nec-1
BMDM [4]
  effect on TNF+CHX-stimulated apoptosis: no measurable effects; also recorded: no effect
[5]
  IC50: 3 nM
Human and murine cells
  IC50: 1 to 4 nM
Recombinant human IDO
  effect on IDO activity: lacks measurable activity; also recorded: no effect; also recorded: inactive
C57BL/6 mice; 0.2 mg/kg i.p.
  protection from TNF+zVAD-induced temperature loss: significant response
C57BL/6 mice; 2 mg/kg i.p.
  protection from TNF+zVAD-induced temperature loss: completely inhibit temperature loss; also recorded: complete protection
339 kinases; 10μM, Reaction Biology Corporation
  activity against 339 human kinases: does not block the activity of any
339 kinases; 10 μM, panel of 339 kinases
  inhibition against all other kinases tested: < 50%
BMDM [6]
  effect on TNF-induced NFκB activation: no measurable effects; also recorded: no effect
MAPKAPK5/PRAK; read-out: % Enzyme Activity (relative to DMSO controls) AVG
  remaining activity at 10 µM: 116%
MAPKAPK5/PRAK; read-out: % Enzyme Activity (relative to DMSO controls) Data 1
  remaining activity at 10 µM: 115%
MAPKAPK5/PRAK; read-out: % Enzyme Activity (relative to DMSO controls) Data 2
  remaining activity at 10 µM: 117%
[7]
  IC50: 0.9 nM
